What all share (format): cell-based
The subject of assay [1] is HAP1 MTAP-deleted cell line. Description: SDMA in-cell western assay, HAP1 MTAP-deleted. The conditions noted are these: Homo sapiens, HAP1, read-out: HAP1 MTAP deleted IC50. The text has this: (§1) Table 1 also indicates IC50 values in an MTAP-isogenic cell line pair for exemplary compounds in an SDMA in-cell western assay (columns 7-8). HAP1 MTAP-intact is a cell line in which endogenous levels of MTAP are expressed, and HAP1 MTAP-deleted is an MTAP-null cell line.

In assay [2] the test system is HAP1 MTAP-deleted cell line. Description: Viability assay, MTAP-deleted cell line. The note with it: Homo sapiens, HAP1, read-out: HAP1 MTAP deleted viability. The text has this:
Table 1 additionally indicates IC50 values in a viability assay for the MTAP-deleted cell line (column 10), indicating the effect of treatment with compound on cell survival.

In assay [3] the test system is HAP1 MTAP-intact cell line. Description: SDMA in-cell western assay, HAP1 MTAP-intact. The note with it: Homo sapiens, HAP1, read-out: MTAP HAP1 intact IC50.
Source text: as §1

This note sets out measurements from patent US11999727B2 (Tango Therapeutics, Inc., priority 2020, dated 2024).

Consider `Cc1cc(NC(=O)C(=O)N2C[C@@H](C)CC[C@@H]2c2ccccc2)cnc1N` (single isomer, unassigned) [Compound 33], for which the figures for the IC50 in assay [1], in assay [2] and in assay [3] were below 0.1 µM, 1 to 10 µM and 0.1 to 1 µM, respectively.
For `Cc1cncc(NC(=O)C(=O)N2[C@@H](c3ccccc3)CC[C@@H](C)[C@H]2C)c1` (single isomer, unassigned) [Compound 35], the IC50 is above 1 µM in assay [1], above 10 µM in assay [2] and above 1 µM in assay [3].
As for `Cc1cc(NC(=O)C(=O)N2C[C@H](C)CC[C@@H]2c2ccccc2)cnc1N` (single isomer, unassigned) [Compound 37], the IC50 in assay [1] was 0.1 to 1 µM; in assay [2], 1 to 10 µM; in assay [3] it was above 1 µM.
In the same order, the values of `Cc1cncc(NC(=O)C(=O)N2[C@H](c3ccccc3)CC[C@@H](C)[C@@H]2C)c1` (single isomer, unassigned) [Compound 39] are above 1 µM, above 10 µM and above 1 µM.
In the same order, the values of `C[C@H]1CC[C@@H](c2ccccc2)N(C(=O)C(=O)Nc2cncc(C(N)=O)c2)C1` (single isomer, unassigned) [Compound 82] are 0.1 to 1 µM, above 10 µM and above 1 µM.
For `C[C@H]1CC[C@H](c2ccccc2)N(C(=O)C(=O)Nc2cncc(C(N)=O)c2)C1` (single isomer, unassigned) [Compound 88], in that order: below 0.1 µM, 1 to 10 µM and above 1 µM.
In the case of `Cc1cc(NC(=O)C(=O)N2CCCC[C@H]2c2ccccc2)cnc1C` (single isomer, unassigned) [Compound 188], the IC50 was above 1 µM in assay [1], above 10 µM in assay [2] and above 1 µM in assay [3].
As for `Cc1cc(NC(=O)C(=O)N2CCCC[C@@H]2c2ccccc2)cnc1C` (single isomer, unassigned) [Compound 189], the IC50 was above 1 µM in assay [1], above 10 µM in assay [2] and above 1 µM in assay [3].
In the case of `Cc1cc(NC(=O)C(=O)N2C[C@H](C)CC[C@H]2c2ccc(F)cc2)cnc1N` (single isomer, unassigned) [Compound 233], the IC50 in assay [1] was above 1 µM; in assay [2], above 10 µM; in assay [3], above 1 µM.
As for `Cc1cc(NC(=O)C(=O)N2C[C@@H](C)CC[C@@H]2c2ccc(F)cc2)cnc1N` (single isomer, unassigned) [Compound 242], the IC50 in assay [1] is below 0.1 µM; in assay [2], below 1 µM; in assay [3], 0.1 to 1 µM.
For `C[C@H]1CC[C@H](c2ccc(O)cc2)N(C(=O)C(=O)Nc2cncc(C(N)=O)c2)C1` (single isomer, unassigned) [Compound 287], in that order: below 0.1 µM, below 1 µM and 0.1 to 1 µM.
For `C[C@@H]1CC[C@@H](c2ccc(O)cc2)N(C(=O)C(=O)Nc2cncc(C(N)=O)c2)C1` (single isomer, unassigned) [Compound 297], in that order: above 1 µM, above 10 µM and above 1 µM.
In the same order, the values of `C[C@H]1CC[C@H](c2ccc3c(c2)CC(=O)N3)N(C(=O)C(=O)Nc2cncc(C(N)=O)c2)C1` (single isomer, unassigned) [Compound 319] are below 0.1 µM, 1 to 10 µM and 0.1 to 1 µM.
Regarding `C[C@@H]1CC[C@@H](c2ccc3[nH]cnc3c2)N(C(=O)C(=O)Nc2cncc(C(N)=O)c2)C1` (single isomer, unassigned) [Compound 344], the IC50 in assay [1] is 0.1 to 1 µM; in assay [2], 1 to 10 µM; in assay [3], above 1 µM.
In the same order, the values of `C[C@@H]1CC[C@@H](c2ccc(C(F)F)cc2)N(C(=O)C(=O)Nc2cncc(C(N)=O)c2)C1` (single isomer, unassigned) [Compound 358] are above 1 µM, above 10 µM and above 1 µM.
For `C[C@H]1CC[C@H](c2ccc(C(F)F)cc2)N(C(=O)C(=O)Nc2cncc(C(N)=O)c2)C1` (single isomer, unassigned) [Compound 359], in that order: below 0.1 µM, 1 to 10 µM and above 1 µM.
For the compound `C[C@H]1CC[C@H](c2ccc3[nH]ncc3c2)N(C(=O)C(=O)Nc2cncc(C(N)=O)c2)C1` (single isomer, unassigned) [Compound 360], the results for the IC50 in assay [1], in assay [2] and in assay [3] were above 1 µM, above 10 µM and above 1 µM, respectively.
As to `C[C@@H]1CC[C@@H](c2ccc3[nH]ncc3c2)N(C(=O)C(=O)Nc2cncc(C(N)=O)c2)C1` (single isomer, unassigned) [Compound 361], the results for the IC50 in assay [1], in assay [2] and in assay [3] were below 0.1 µM, below 1 µM and 0.1 to 1 µM, respectively.
In the same order, the values of `Cc1cc(NC(=O)C(=O)N2C[C@H](C)CC[C@H]2c2ccc3[nH]ncc3c2)cnc1N` (single isomer, unassigned) [Compound 363] are below 0.1 µM, below 1 µM and below 0.1 µM.
On to `Cc1cc(NC(=O)C(=O)N2C[C@@H](C)CC[C@@H]2c2ccc3[nH]ncc3c2)cnc1N` (single isomer, unassigned) [Compound 364], for which the IC50 in assay [1] was above 1 µM; in assay [2], above 10 µM; in assay [3] it was above 1 µM.
With `C[C@@H]1CC[C@@H](c2ccc3[nH]ccc3c2)N(C(=O)C(=O)Nc2cncc(C(N)=O)c2)C1` (single isomer, unassigned) [Compound 372], the IC50 in assay [1] was above 1 µM; in assay [2], above 10 µM; in assay [3], above 1 µM.
On to `Cc1cc(NC(=O)C(=O)N2C[C@H](C)CC[C@H]2c2ccc3[nH]ccc3c2)cnc1N` (single isomer, unassigned) [Compound 385], for which the IC50 in assay [1] was below 0.1 µM; in assay [2], below 1 µM; in assay [3] it was 0.1 to 1 µM.
Consider `Cc1cc(NC(=O)C(=O)N2C[C@@H](C)CC[C@@H]2c2ccc3[nH]ccc3c2)cnc1N` (single isomer, unassigned) [Compound 388], for which the IC50 in assay [1] was above 1 µM; in assay [2] it was above 10 µM; in assay [3], above 1 µM.
With `Cc1cc(NC(=O)C(=O)N2C[C@@H](C)CC[C@H]2c2ccc3[nH]ncc3c2)cnc1N` (single isomer, unassigned) [Compound 392], the IC50 in assay [1] is below 0.1 µM; in assay [2], 1 to 10 µM; in assay [3] it was above 1 µM.
On to `Cc1cc(NC(=O)C(=O)N2C[C@@H](C)CC[C@@H]2c2ccc(O)cc2)cnc1N` (single isomer, unassigned) [Compound 396], for which the IC50 in assay [1] is above 1 µM; in assay [2], above 10 µM; in assay [3] it was above 1 µM.
For `Cc1cc(NC(=O)C(=O)N2C[C@H](C)CC[C@H]2c2ccc(O)cc2)cnc1N` (single isomer, unassigned) [Compound 397], the IC50 in assay [1] was below 0.1 µM; in assay [2], below 1 µM; in assay [3], 0.1 to 1 µM.
In the same order, the values of `Cc1cc(NC(=O)C(=O)N2C[C@@H](C)CC[C@@H]2c2ccc3[nH]cnc3c2)cnc1N` (single isomer, unassigned) [Compound 408] are below 0.1 µM, below 1 µM and 0.1 to 1 µM.
For the compound `Cc1cc(NC(=O)C(=O)N2C[C@H](C)CC[C@H]2c2ccc(C(F)F)cc2)cnc1N` (single isomer, unassigned) [Compound 419], the IC50 in assay [1] was below 0.1 µM; in assay [2], 1 to 10 µM; in assay [3], 0.1 to 1 µM.
`C[C@H]1CC[C@H](c2ccc3c(c2)CCC(=O)N3)N(C(=O)C(=O)Nc2cncc(C(N)=O)c2)C1` (single isomer, unassigned) [Compound 479]: the IC50 in assay [1] is below 0.1 µM; in assay [2], 1 to 10 µM; in assay [3] it was above 1 µM.
Turning to `C[C@@H]1CC[C@@H](c2ccc3c(c2)CCC(=O)N3)N(C(=O)C(=O)Nc2cncc(C(N)=O)c2)C1` (single isomer, unassigned) [Compound 480], the IC50 in assay [1] was above 1 µM; in assay [2] it was above 10 µM; in assay [3], above 1 µM.
As to `C[C@H]1CC[C@H](c2ccc3[nH]ccc3c2)N(C(=O)C(=O)Nc2cncc(C(N)=O)c2)C1` (single isomer, unassigned) [Compound 481], the IC50 in assay [1] was below 0.1 µM; in assay [2], below 1 µM; in assay [3], 0.1 to 1 µM.
For `Cc1cc(NC(=O)C(=O)N2C[C@@H](C)CC[C@@H]2c2ccc3c(c2)CCC(=O)N3)cnc1N` (single isomer, unassigned) [Compound 502], in that order: below 0.1 µM, below 1 µM and 0.1 to 1 µM.
Consider `Cc1cc(NC(=O)C(=O)N2C[C@H](C)CC[C@H]2c2ccc3c(c2)CCC(=O)N3)cnc1N` (single isomer, unassigned) [Compound 505], for which the IC50 in assay [1] is below 0.1 µM; in assay [2] it was below 1 µM; in assay [3], 0.1 to 1 µM.
In the same order, the values of `C[C@H]1CC[C@H](c2ccc3scnc3c2)N(C(=O)C(=O)Nc2cncc(C(N)=O)c2)C1` (single isomer, unassigned) [Compound 587] are below 0.1 µM, below 1 µM and 0.1 to 1 µM.
For the compound `C[C@@H]1CC[C@@H](c2ccc3scnc3c2)N(C(=O)C(=O)Nc2cncc(C(N)=O)c2)C1` (single isomer, unassigned) [Compound 588], the results for the IC50 in assay [1], in assay [2] and in assay [3] were above 1 µM, above 10 µM and above 1 µM, respectively.
